Literature values as cited in patent US6150391A, “Diazabicyclo-octane derivatives as 5-HT receptor ligands” (Merck Sharp & Dohme Ltd., priority 1996, dated 2000).

Columns and labels:
[1] = system: human 5-HT1D.sbsb.α and 5-HT1D.sbsb.β receptor subtypes; conditions: cf WO-A-91/17174, Table 1
[2] = therapeutic doses

Structure (SMILES): CNS(=O)(=O)Cc1ccc2[nH]cc(CCN(C)C)c2c1 [sumatriptan]
- discrimination between the human 5-HT1D.sbsb.α and 5-HT1D.sbsb.β receptor subtypes [1]: barely discriminates
- adverse events on administration to humans [2]: certain adverse cardiovascular events
